From patent publication US20180280370A1, “DOSAGE REGIMEN FOR A PHOSPHATIDYLINOSITOL 3-KINASE INHIBITOR” (Novartis AG, priority 2015, published 2018)
Like-named read-outs stand apart in the source and are kept apart here.

Legend:
[1] = Continuous blood glucose measurement via radio-telemetry in conscious freely moving rats; assay type: in vivo, Brown Norway rats; details: for normalization of blood glucose in between 2 doses: steady state
Method: Animals and maintenance conditions: Experiments were performed in female nude Rowett rats Hsd: RH-Fox1rnu or female Brown-Norway (BN) rats (Harlan (The Netherlands). Animals were 6-9 weeks of age at time of application of the compound. Animals were housed under Optimized Hygienic Conditions in Makrolon type III cages (max. 2 animals per cage) with free access to food and water. They were allowed to adapt for at least 6 days before the experiment was started.
Compound A was prepared for dosing as homogenous suspensions in 1% carboxymethyl cellulose: 0.5% Tween® 80: 98.5% deionized water. Fresh suspensions were prepared once every 7 days and stored at 4° C. Compound A or vehicle was administered orally at a volume of 10 mL/kg.
Blood Glucose Measurements Via Radio-Telemetry Technology (HD-XG Radio Telemetry Transmitter; Data Sciences International):
Blood glucose levels were measured continuously in conscious non-restrained freely moving rats by the method described in Brockway et al., Journal of Diabetes Science and Technology., 9(4):771-81 (2015), which is incorporated herein by reference in its entirety. Briefly, the 1.4 cc telemetry device provides direct continuous blood glucose readings along with temperature and activity for 4 weeks or longer. The device was used in non-tumor bearing Brown Norway (BN) rats. Each animal was surgically instrumented with glucose sensors in the abdominal aorta and the device placed in the intraperitoneal cavity. Continuous glucose readings were recorded with the Dataquest A.R.T. data acquisition system. Reference glucose values were measured from tail vein blood samples using the Nova StatStrip glucometer twice per week. Each animal was measured in cyclic runs of 1 minute for 10 seconds with a sampling rate of 1 Hz. Mean values for blood glucose levels, body temperature and motor activity were then computed and stored. Fifteen minutes or hourly averages were determined using the interval averaging routine on the Dataquest Analysis Software (Dataquest A.R.T, version 4.36; Data Sciences). Blood glucose values are expressed in mmol/L, body temperature in degree Celsius (° C.) and motor activity in number of movements (units) per minute.
(§1) Absolute values for primary tumor growth and body weight were used to make the statistical comparisons between groups (one way ANOVA followed by Dunnett's test for normally distributed data; ANOVA on Ranks for not normally distributed data followed by Dunnett's test for equal group size or Dunn's for unequal group size). Absolute values for blood glucose (calculated mean over 6 hours' time periods) and PK data were used to make the statistical comparisons between groups (two-tailed Student's t-tests). The significant level was set at p<0.05. All statistical calculations were carried out using SigmaStat.

[2] = Plasma PK after oral administration in freely moving catheterized rats with automated blood sampling; assay type: in vivo, Brown Norway rats; details: day 1 or 4 (steady state), 50 mg/kg p.o. qd; 2, 4, 6, 8, 10, 12, 18 and 24h post treatment
Text: Determination of Pharmacokinetic (PK) Parameters after Oral Administration of Compound A in Freely Moving Catheterized Rats Using Automated Blood Sampling (ABS) Technology:
The highly automated ABS system (Instech ABS2™) allows for unattended blood sample collection via an in-dwelling venous catheter placed in the jugular or femoral vein. For all animals, cannulas were filled with 1:1 heparin glycerol solution when not on study. The ABS freely-moving system is a well-recognized method to reduce stress during blood sampling and it only marginally impedes the animal in its freedom to move, drink, eat and sleep. Furthermore, this method allows obtaining pharmacokinetic parameters at night time (active phase of the animal).
as §1

[3] = tested on: Rat1-myr-p110α subcutaneous xenografts; test: Antitumor efficacy in Rat1-myr-p110α tumor bearing nude rats; assay type: in vivo; details: for body weight changes, 10 A.M. vs 5 p.m. dosing / tumor volume inhibition, 10 A.M. (ALTERNATIVE SCHEDULE 1) vs 5 p.m. dosing: 14 consecutive days
Method: Animals and maintenance conditions: Experiments were performed in female nude Rowett rats Hsd: RH-Fox1rnu or female Brown-Norway (BN) rats (Harlan (The Netherlands). Animals were 6-9 weeks of age at time of application of the compound. Animals were housed under Optimized Hygienic Conditions in Makrolon type III cages (max. 2 animals per cage) with free access to food and water. They were allowed to adapt for at least 6 days before the experiment was started. Cell line and cell culture: Rat1-Myr-p110α cells were grown in Dulbecco's Modified Eagle Medium (DMEM) culture medium containing 4.5 g/l glucose supplemented with 10% heat-inactivated fetal calf serum (FCS), 2 mM L-glutamine, 1 mM sodium pyruvate and incubated at 37° C. in a 5% CO2 humidified atmosphere. Cells were harvested with trypsin-EDTA, re-suspended in culture medium (with additives) and counted with a Casy® system. Finally, cells were centrifuged, suspended in ice-cold Hanks' balanced salt solution (HBSS) at a concentration of 3×10^7 cells/ml. Cell culture reagents were purchased from BioConcept (Allschwil, Switzerland). Rat1-myr-p110α cells were generated by the method described in Maira et al., Molecular Cancer Therapeutics, 11:317-328 (2012), which is incorporated herein by reference in its entirety. Briefly, Rat1 cells were transfected to stably express the constitutively active form of the catalytic PI3K class I p110 isoforms a by addition of a myristylation signal to the N-terminus. Rat1-Myr-p110α tumors were established by subcutaneous injection of […] in 100 μL HBSS (Sigma #H8264) into the right flank of nude rats. For the efficacy experiments, treatments were initiated when the mean tumor volumes were approx. 900-1200 mm^3 (21 to 23 days post tumor cells injection). Compound A was prepared for dosing as homogenous suspensions in 1% carboxymethyl cellulose: 0.5% Tween® 80: 98.5% deionized water. Fresh suspensions were prepared once every 7 days and stored at 4° C. Compound A or vehicle was administered orally at a volume of 10 mL/kg. Tumor volumes were measured with calipers and determined according to the formula: length×diameter^2×π/6. In addition to presenting changes of tumor volumes over the course of treatments, antitumor activity is expressed as T/C % (mean change of tumor volume of treated animals/mean change of tumor volume of control animals)×100. Regressions (%) were calculated according to the formula ((mean tumor volume at end of treatment−mean tumor volume at start of treatment)/mean tumor volume at start of treatment)×100. Body weights and tumor volumes were recorded two to three times a week. Absolute values for primary tumor growth and body weight were used to make the statistical comparisons between groups (one way ANOVA followed by Dunnett's test for normally distributed data; ANOVA on Ranks for not normally distributed data followed by Dunnett's test for equal group size or Dunn's for unequal group size). Absolute values for blood glucose (calculated mean over 6 hours' time periods) and PK data were used to make the statistical comparisons between groups (two-tailed Student's t-tests). The significant level was set at p<0.05. All statistical calculations were carried out using SigmaStat.

[4] = tested on: advanced solid malignancies carrying an alteration in the PIK3CA gene; details: cited from earlier work
advanced solid tumors = details: cited from earlier work
[5] = daily administration, human patients

Cc1nc(NC(=O)N2CCC[C@H]2C(N)=O)sc1-c1ccnc(C(C)(C)C(F)(F)F)c1 [Compound A, (S)-Pyrrolidine-1,2-dicarboxylic acid 2-amide 1-({4-methyl-5-[2-(2,2,2-trifluoro-1,1-dimethyl-ethyl)-pyridin-4-yl]-thiazol-2-yl}-amide)]
normalization of blood glucose in between 2 doses ([1]; 50 mg/kg p.o. qd, dosing before the active phase (5 p.m.)): could not be achieved | normalization of blood glucose in between 2 doses ([1]; 50 mg/kg p.o. qd, dosing before the inactive phase (10 a.m.)): allowed blood glucose to normalize in between 2 doses | change in glucose level ([1]; 50 mg/kg p.o. qd, steady state (Day 4), n=6): transient glucose level increase | effect on blood glucose levels ([1]; day 1 of treatment, 50 mg/kg p.o. qd dosed at 5 PM (active phase)): slight hyperglycemia | effect on blood glucose levels ([1]; day 1 of treatment, 50 mg/kg p.o. qd dosed at 10 AM (inactive phase)): slight hyperglycemia | period of remaining transient hyperglycemia after treatment discontinuation ([1]; recovery day 1, group dosed before the active phase (5 p.m.), 50 mg/kg p.o. qd): up to 12 h | blood glucose after treatment discontinuation ([1]; start of recovery day 1, group dosed before the inactive phase (10 a.m.), 50 mg/kg p.o. qd): already normalized to baseline levels | effect on blood glucose levels ([1]; steady state (Day 4-5 of daily treatment), 50 mg/kg p.o. qd): transient hyperglycemia profile | plasma PK profile, 10 AM vs 5 PM dosing [2]: did not revealed any significant differences | anti-tumor efficacy ([3]; 14 mg/kg p.o. qd, 2 weeks of treatment): stasis | body weight changes, 10 A.M. vs 5 p.m. dosing ([3]; 14 mg/kg p.o. qd): very similar pattern | tumor volume inhibition, 10 A.M. (ALTERNATIVE SCHEDULE 1) vs 5 p.m. dosing ([3]; 14 mg/kg p.o. qd): No significant differences | tumor regression ([3]; 25 mg/kg p.o. qd, 2 weeks of treatment): 50% | body weight changes, 10 A.M. vs 5 p.m. dosing ([3]; 25 mg/kg p.o. qd): very similar pattern | tumor volume inhibition, 10 A.M. (ALTERNATIVE SCHEDULE 1) vs 5 p.m. dosing ([3]; 25 mg/kg p.o. qd): No significant differences | Disease control rate (complete response, partial response or stable disease) ([4]; 150 mg/BID, 95% CI: 38.4-88.2): 66.7% | confirmed partial responses ([4]; 150 mg/BID): 2 patients | confirmed partial responses ([4]; 270 mg/QD): 2 patients | confirmed partial responses ([4]; 350 mg/QD): 1 patients | Disease control rate (complete response, partial response or stable disease) ([4]; 400 mg/QD, 95% CI: 40.1-66.0): 53.2% | confirmed partial responses ([4]; 400 mg/QD): 2 patients | MTD ([4]; QD, in patients): 400 mg | confirmed partial responses ([4]; all doses, of 132 evaluable patients): 7 patients | patients with induced hyperglycemia [4, 5]: 49% | partial responses to treatment ([4]; of 132 evaluable patients, as of Mar. 10, 2014, oral 30-450 mg q.d. or 120-200 mg b.i.d.): 15 patients

Nc1cc(C(F)(F)F)c(-c2cc(N3CCOCC3)nc(N3CCOCC3)n2)cn1 [Compound B, 4-(trifluoromethyl)-5-(2,6-dimorpholinopyrimidin-4-yl)pyridin-2-amine]
patients with induced hyperglycemia (advanced solid tumors; [5]): 31% | unconfirmed partial responses (advanced solid tumors; parotid gland carcinoma, epithelioid hemangiothelioma, ER+ breast cancer): three | confirmed partial response (advanced solid tumors; triple-negative breast cancer, 83 patients enrolled): One
